Nc1cnc(Br)cn1
solubility (mole fraction)
Details | in DMF | in acetone | in ethanol | in ethylene glycol | in isopropanol | in methanol | in n-butanol | in n-propanol | in propylene glycol | in water
278.15 K | 0.00849 | 0.00684 | 0.00144 | 0.000694 | 0.00282 | 0.000887 | 0.00541 | 0.00353 | 0.00113 | 1.76e-05
283.15 K | 0.00942 | 0.0076 | 0.00158 | 0.000773 | 0.00308 | 0.000981 | 0.00601 | 0.00392 | 0.00125 | 1.93e-05
288.15 K | 0.0106 | 0.00856 | 0.00174 | 0.000869 | 0.0034 | 0.00108 | 0.00678 | 0.00445 | 0.00139 | 2.18e-05
293.15 K | 0.0119 | 0.00961 | 0.00194 | 0.00097 | 0.0038 | 0.00121 | 0.00757 | 0.00497 | 0.00153 | 2.43e-05
298.15 K | 0.0133 | 0.0108 | 0.00217 | 0.00109 | 0.00429 | 0.00135 | 0.00853 | 0.00563 | 0.00173 | 2.73e-05
303.15 K | 0.0149 | 0.012 | 0.00243 | 0.00121 | 0.00477 | 0.00151 | 0.00953 | 0.00625 | 0.00192 | 3.08e-05
308.15 K | 0.0165 | 0.0134 | 0.00272 | 0.00135 | 0.00531 | 0.00167 | 0.0106 | 0.00696 | 0.00216 | 3.42e-05
313.15 K | 0.0185 | 0.0149 | 0.00308 | 0.00149 | 0.00594 | 0.00185 | 0.0118 | 0.00774 | 0.00239 | 3.83e-05
318.15 K | 0.0205 | 0.0165 | 0.00345 | 0.00166 | 0.0066 | 0.00204 | 0.0131 | 0.00858 | 0.00266 | 4.27e-05
323.15 K | 0.0227 | 0.0183 | 0.0039 | 0.00184 | 0.00735 | 0.00225 | 0.0145 | 0.0095 | 0.00294 | 4.77e-05
